This assay has as its system DNA duplex (DNA, duplex) CAATCGGATCGAATTCGATCCGATTG
Nature of the assay: fluorescent intercalator displacement. Particulars: K+ (50 mM KCl, 10 mM KH2PO4); 1 mM K2EDTA, pH 7.4, room temperature; thiazole orange 0.5 μM displaced (Kf 3 × 10^6 M^-1); duplex 0.25 μM.

Consider 2 molecules from paper PMC8658795 (2021).

`NN1C(=O)c2c(c3c4ccccc4n([C@@H]4OC[C@H](O)[C@H](O)[C@H]4O)c3c3[nH]c4ccccc4c23)C1=O`: the Kb entry was “(1.24 ± 0.07) × 10^6 M^-1”. Next, `O=C(NN1C(=O)c2c(c3c4ccccc4n([C@H]4OC[C@@H](O)[C@H](O)[C@H]4O)c3c3[nH]c4ccccc4c23)C1=O)c1ccccn1`: “(2.52 ± 0.4) × 10^5 M^-1”.
